For one test, the system named is U937 cells. As to the kind of experiment: EC50 of necroptosis inhibition in U937 cells (TSZ-induced, CellTiter-Glo). The class given is cell-based. As to conditions: Homo sapiens, U-937; TSZ (hTNF-α, SM-164, Z-VAD-FMK) 20 hours; 10 concentration points; read-out: EC50 intervals of necroptosis inhibition in U937 cells. A digest of the protocol: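 U937 cells pretreated 15 min with compound (10-point, 1:3 series), then necroptosis induced by TSZ (hTNF-α, SM-164, Z-VAD-FMK) for 20 h at 37 °C. Viability measured as ATP by CellTiter-Glo luminescence; inhibition normalised to untreated and TSZ-only wells, EC50 from four-parameter fit.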
Background: Cellular ATP, detected with luciferase, serves as a proxy for viable cell number.

A further test has as its target T1, RIPK1 kinase (Homo sapiens, UniProt Q13546).
T1 construct: purchased Promega VA7593
T1 sequence (Q13546 1-671): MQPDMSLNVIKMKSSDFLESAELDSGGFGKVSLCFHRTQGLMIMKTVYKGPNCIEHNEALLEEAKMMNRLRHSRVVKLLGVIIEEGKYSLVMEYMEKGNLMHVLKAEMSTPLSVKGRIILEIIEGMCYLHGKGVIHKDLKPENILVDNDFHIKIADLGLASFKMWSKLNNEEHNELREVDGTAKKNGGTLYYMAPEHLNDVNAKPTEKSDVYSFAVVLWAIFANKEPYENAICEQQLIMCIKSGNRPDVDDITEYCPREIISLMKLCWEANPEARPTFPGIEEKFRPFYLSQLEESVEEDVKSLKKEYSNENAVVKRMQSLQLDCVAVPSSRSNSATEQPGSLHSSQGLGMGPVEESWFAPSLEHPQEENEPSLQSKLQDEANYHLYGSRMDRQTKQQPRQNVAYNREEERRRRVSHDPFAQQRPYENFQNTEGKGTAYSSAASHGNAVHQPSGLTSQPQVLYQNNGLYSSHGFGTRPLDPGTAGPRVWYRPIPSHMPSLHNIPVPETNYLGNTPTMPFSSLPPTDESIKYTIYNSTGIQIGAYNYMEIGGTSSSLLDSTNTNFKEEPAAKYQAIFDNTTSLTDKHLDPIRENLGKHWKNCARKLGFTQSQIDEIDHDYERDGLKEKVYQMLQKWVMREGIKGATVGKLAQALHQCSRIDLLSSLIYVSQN
Put plainly: In vitro RIPK1 kinase activity IC50 assay (ADP-Glo). The test is classed as biochemical. As to conditions: ATP 10 μM; MBP substrate 100 μg/mL; 8 concentration points; read-out: IC50 range of compounds for RIPK1 kinase activity. In short, it runs like this:
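Human RIPK1 preincubated 15 min at room temperature with compound (8-point 1:5 dilution series, 1% DMSO in kinase buffer D). Reaction then ran 1 h with 10 μM ATP and 100 μg/mL MBP substrate; ADP measured by ADP-Glo luminescence, IC50 from four-parameter nonlinear fit.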
(In general: ADP-Glo turns the ADP formed in a reaction into a luminescent signal.)

A word on the pEC50: it is the EC50 on a negative log10 scale, so that one unit is a factor of ten. For orientation: pIC50 means the IC50 on a negative log10 scale, so that one unit is a factor of ten.

pEC50, pIC50: −log10 of the molar value. Where only a bound is given, the exact number is not on record here.

As for `CN1C(=O)[C@H](NC(=O)C(=O)NCCc2ccccc2)COc2ccc(C#CC3(O)COC3)cc21` [Example 77, (R)—N^1-(7-((3-hydroxyoxetan-3-yl)ethynyl)-5-methyl-4-oxo-2,3,4,5-tetrahydrobenzo[b][1,4]oxazepin-3-yl)-N^2-phenethyloxalamide], the negative logarithm of the EC50 (pEC50) in the test with U937 cells is more than 7.00. Further, the pIC50 on RIPK1 kinase is more than 7.00.

For `COC1(C#Cc2ccc3c(c2)N(C)C(=O)[C@@H](NC(=O)C(=O)NCCc2ccccc2)CO3)COC1` [Example 78, (S)—N^1-(7-((3-methoxyoxetan-3-yl)ethynyl)-5-methyl-4-oxo-2,3,4,5-tetrahydrobenzo[b][1,4]oxazepin-3-yl)-N^2-phenethyloxalamide], in the test on U937 cells, the negative-log EC50 (pEC50) was more than 7.00. Also, the pIC50 on RIPK1 kinase was more than 7.00.

Regarding `CN1C(=O)[C@@H](NC(=O)C(=O)NCCc2ccccc2)COc2ccc(C#CCC3(O)COC3)cc21` [Example 79, (S)—N^1-(7-(3-(3-hydroxyoxetan-3-yl)prop-1-yn-1-yl)-5-methyl-4-oxo-2,3,4,5-tetrahydrobenzo[b][1,4]oxazepin-3-yl)-N^2-phenethyloxalamide], the negative-log EC50 (pEC50) with U937 cells was more than 7.00. Also, on RIPK1 kinase, the pIC50 was more than 7.00.

For `CN1C(=O)[C@@H](NC(=O)C(=O)NCCc2ccccc2)COc2ccc(C#CC3(O)CCOC3)cc21` (stereo partly drawn) [Example 80, N^1-((3S)-7-((3-hydroxytetrahydrofuran-3-yl)ethynyl)-5-methyl-4-oxo-2,3,4,5-tetrahydrobenzo[b][1,4]oxazepin-3-yl)-N^2-phenethyloxalamide], the negative logarithm of the EC50 (pEC50) in the test with U937 cells is more than 7.00. Moreover, at RIPK1 kinase, the pIC50 is more than 7.00.

Regarding `CN1C(=O)[C@@H](NC(=O)C(=O)NCCc2ccccc2)COc2ccc(C#CCN3CCC(O)CC3)cc21` [Example 81, (S)—N^1-(7-(3-(4-hydroxypiperidin-1-yl)prop-1-yn-1-yl)-5-methyl-4-oxo-2,3,4,5-tetrahydrobenzo[b][1,4]oxazepin-3-yl)-N^2-phenethyloxalamide], the pEC50 in the test with U937 cells was more than 7.00. Besides, the negative logarithm of the IC50 (pIC50) on RIPK1 kinase was more than 7.00.

Take `CN1C(=O)[C@@H](NC(=O)C(=O)NCCc2ccccc2)COc2ccc(C#CCN3C(=O)CCC3=O)cc21` [Example 84, (S)—N^1-(7-(3-(2,5-dioxopyrrolidin-1-yl)prop-1-yn-1-yl)-5-methyl-4-oxo-2,3,4,5-tetrahydrobenzo[b][1,4]oxazepin-3-yl)-N^2-phenethyloxalamide]: the pEC50 in the test on U937 cells is more than 7.00. In addition, the negative-log IC50 (pIC50) at RIPK1 kinase was more than 7.00.

With `CN1C(=O)[C@@H](NC(=O)C(=O)NCCc2ccccc2)COc2ccc(C#CCN3CCNC(=O)C3)cc21` [Example 85, (S)—N^1-(5-methyl-4-oxo-7-(3-(3-oxopiperazin-1-yl)prop-1-yn-1-yl)-2,3,4,5-tetrahydrobenzo[b][1, 4]oxazepin-3-yl)-N^2-phenethyloxalamide], in the test with U937 cells, the negative logarithm of the EC50 (pEC50) was more than 7.00. The negative-log IC50 (pIC50) at RIPK1 kinase is more than 7.00.

As to `CN1C(=O)[C@@H](NC(=O)C(=O)NCCc2ccccc2)COc2ccc(C#CCNC(=O)OC(C)(C)C)cc21` [Example 86, tert-butyl (S)-(3-(5-methyl-4-oxo-3-(2-oxo-2-(phenethylamino)acetamido)-2,3,4,5-tetrahydrobenzo[b][1,4]oxazepin-7-yl)prop-2-yn-1-yl)carbamate], the pEC50 in the test on U937 cells was more than 7.00. Further, on RIPK1 kinase, the negative logarithm of the IC50 (pIC50) is more than 7.00.

Take `CN1C(=O)[C@@H](NC(=O)C(=O)NCCc2ccccc2)COc2ccc(C#CCNC(=O)CO)cc21` [Example 88, (S)—N^1-(7-(3-(2-hydroxyacetamido)prop-1-yn-1-yl)-5-methyl-4-oxo-2,3,4,5-tetrahydrobenzo[b][1, 4]oxazepin-3-yl)-N^2-phenethyloxalamide]: the negative logarithm of the EC50 (pEC50) in the test with U937 cells is more than 7.00. Further, at RIPK1 kinase, the negative logarithm of the IC50 (pIC50) was more than 7.00.

For `C=CC(=O)NCC#Cc1ccc2c(c1)N(C)C(=O)[C@@H](NC(=O)C(=O)NCCc1ccccc1)CO2` [Example 89, (S)—N^1-(7-(3-acrylamidoprop-1-yn-1-yl)-5-methyl-4-oxo-2,3,4,5-tetrahydrobenzo[b][1,4]oxazepin-3-yl)-N^2-phenethyloxalamide], in the test with U937 cells, the pEC50 was more than 7.00. For the same compound, the pIC50 on RIPK1 kinase is more than 7.00.

For `CN1C(=O)[C@@H](NC(=O)C(=O)NCCc2ccccc2)COc2ccc(C#CC3CN(C=O)C3)cc21` [Example 91, (S)—N^1-(7-((1-formylazetidin-3-yl)ethynyl)-5-methyl-4-oxo-2,3,4,5-tetrahydrobenzo[b][1,4]oxazepin-3-yl)-N^2-phenethyloxalamide], the negative logarithm of the EC50 (pEC50) in the test with U937 cells was more than 7.00. At RIPK1 kinase, the negative-log IC50 (pIC50) is more than 7.00.

As to `CN1C(=O)[C@@H](NC(=O)C(=O)NCCc2ccccc2)COc2ccc(C#CC3(O)CN(C=O)C3)cc21` [Example 92, (S)—N^1-(7-((1-formyl-3-hydroxyazetidin-3-yl)ethynyl)-5-methyl-4-oxo-2,3,4,5-tetrahydrobenzo[b][1,4]oxazepin-3-yl)-N^2-phenethyloxalamide], in the test with U937 cells, the pEC50 was more than 7.00. In addition, at RIPK1 kinase, the negative logarithm of the IC50 (pIC50) is more than 7.00.

As to `CCOC(=O)CCC#Cc1ccc2c(c1)N(C)C(=O)[C@@H](NC(=O)C(=O)NCCc1ccccc1)CO2` [Example 94, ethyl (S)-5-(5-methyl-4-oxo-3-(2-oxo-2-(phenethylamino)acetamido)-2,3,4,5-tetrahydrobenzo[b][1,4]oxazepin-7-yl) pent-4-ynoate], the negative-log EC50 (pEC50) in the test on U937 cells was 6.30 to 7.00. Besides, the negative logarithm of the IC50 (pIC50) at RIPK1 kinase was more than 7.00.

In the case of `CN1C(=O)[C@@H](NC(=O)C(=O)NCc2ccccc2)COc2ccc(C#CCn3ccnc3)cc21` [Example 104, (S)—N^1-(7-(3-(1H-imidazol-1-yl)prop-1-yn-1-yl)-5-methyl-4-oxo-2,3,4,5-tetrahydrobenzo[b][1,4]oxazepin-3-yl)-N^2-benzyloxalamide], the pEC50 in the test on U937 cells was more than 7.00. Moreover, at RIPK1 kinase, the pIC50 is more than 7.00.

For `CN1C(=O)[C@@H](NC(=O)C(=O)NCc2ccccc2)COc2ccc(C#CCN3CCOCC3)cc21` [Example 106, (S)—N^1-benzyl-N^2-(5-methyl-7-(3-morpholinoprop-1-yn-1-yl)-4-oxo-2,3,4,5-tetrahydrobenzo[b][1, 4]oxazepin-3-yl)oxalamide], in the test on U937 cells, the pEC50 is more than 7.00. For the same compound, the pIC50 at RIPK1 kinase was more than 7.00.

Regarding `CN1C(=O)[C@@H](NC(=O)C(=O)NCc2ccccc2)COc2ccc(C#CCN3CCNC(=O)C3)cc21` [Example 107, (S)—N^1-benzyl-N^2-(5-methyl-4-oxo-7-(3-(3-oxopiperazin-1-yl)prop-1-yn-1-yl)-2,3,4,5-tetrahydrobenzo[b][1,4]oxazepin-3-yl)oxalamide], the negative-log EC50 (pEC50) in the test on U937 cells was more than 7.00. The negative-log IC50 (pIC50) on RIPK1 kinase is more than 7.00.

For the compound `CN1C(=O)[C@H](NC(=O)C(=O)NCCc2cccc(F)c2)COc2ccc(C#CCCO)cc21` [Example 109, (R)—N^1-(3-fluorophenethyl)-N^2-(7-(4-hydroxybut-1-yn-1-yl)-5-methyl-4-oxo-2,3,4,5-tetrahydrobenzo[b][1,4]oxazepin-3-yl)oxalamide], the pEC50 in the test with U937 cells is more than 7.00. Moreover, the negative-log IC50 (pIC50) on RIPK1 kinase was more than 7.00.

As to `CN1C(=O)[C@@H](NC(=O)C(=O)NCCc2cccc(F)c2)COc2ccc(C#CC3(O)COC3)cc21` [Example 110, (S)—N^1-(3-fluorophenethyl)-N^2-(7-((3-hydroxyoxetan-3-yl)ethynyl)-5-methyl-4-oxo-2,3,4,5-tetrahydrobenzo[b][1,4]oxazepin-3-yl)oxalamide], the pEC50 in the test on U937 cells is more than 7.00. The negative-log IC50 (pIC50) at RIPK1 kinase is more than 7.00.

In the case of `CN1C(=O)[C@@H](NC(=O)C(=O)NCCc2cccc(F)c2)COc2ccc(C#CCN3CC[C@@H](O)C3)cc21` [Example 114, N^1-(3-fluorophenethyl)-N^2-((S)-7-(3-((R)-3-hydroxypyrrolidin-1-yl)prop-1-yn-1-yl)-5-methyl-4-oxo-2,3,4,5-tetrahydrobenzo[b][1,4]oxazepin-3-yl)oxalamide], the negative-log EC50 (pEC50) in the test on U937 cells was more than 7.00. Besides, the pIC50 at RIPK1 kinase was more than 7.00.

With `CN1C(=O)[C@@H](NC(=O)C(=O)NCCc2cccc(F)c2)COc2ccc(C#CCN3CC[C@H](O)C3)cc21` [Example 115, N^1-(3-fluorophenethyl)-N^2-((S)-7-(3-((S)-3-hydroxypyrrolidin-1-yl)prop-1-yn-1-yl)-5-methyl-4-oxo-2,3,4,5-tetrahydrobenzo[b][1,4]oxazepin-3-yl)oxalamide], in the test on U937 cells, the negative-log EC50 (pEC50) is more than 7.00. The pIC50 on RIPK1 kinase is more than 7.00.

`CN1C(=O)[C@@H](NC(=O)C(=O)NCCc2cccc(F)c2)COc2ccc(C#Cc3cccnc3)cc21` [Example 117, (S)—N^1-(3-fluorophenethyl)-N^2-(5-methyl-4-oxo-7-(pyridin-3-ylethynyl)-2,3,4,5-tetrahydrobenzo[b][1,4]oxazepin-3-yl)oxalamide]: the pEC50 in the test with U937 cells is more than 7.00. For the same compound, the pIC50 at RIPK1 kinase is more than 7.00.

(Values after patent US20250368633A1, “AZEPINE FUSED RING COMPOUND AS RIPK1 INHIBITOR AND USE THEREOF” (ARTIVILA BIOPHARMA, priority 2022, published 2025).)
